The results in this text go back to patent US20110280831A1, “COMBINATIONS COMPRISING METHOTREXATE AND DHODH INHIBITORS” (priority 2009, published 2011).

Data set [1] concerns the target human DHODH (Homo sapiens, UniProt Q02127). The experiment in a line: Inhibition of human DHODH activity assay (DCIP chromogen reduction). The class given is biochemical. The settings on record: enzyme extracts, 10 min at room temperature, absorbance at 600 nm, duplicate; read-out: hDHODH IC50. How it is done: DHODH activity and its inhibition were studied using a chromogen reduction assay with DCIP (2,6-dichlorophenol-indophenol).
Enzyme extracts (8 μl, ˜1.5 μg of human protein) were incubated in 96-well plates. The assay mixture (200 μl) contained 200 μM CoQD, 100 μM L-DHO, 120 μM DCIP in the assay buffer (100 mM HEPES pH 8.0, 150 mM NaCl, 10% Glicerol, 0.05% Triton X-100) and 2 μl of test compound. The compounds were dissolved in DMSO at a stock concentration of 1 mM, and tested at different concentrations varying from 10 μM to 1 pM to calculate an IC50 (concentration of inhibitor required for 50% of inhibition).
The reaction was initiated by adding the enzyme and then incubated for 10 min at room temperature before measuring DCIP reduction by counting a decrease in absorbance at 600 nm using standard instrumentation (Spectramax).
All reactions were carried out in duplicate and graphs, determining IC50 values for each compound, were plotted using the ABase software.

In data set [2] the test system is Swiss mice. The data set is described as follows: Acute hepatotoxicity assay, plasma liver markers. The following applies: for ALT plasma level / AST plasma level / BIL (total bilirubin) plasma level: Swiss mice, single 100 mg/kg intraperitoneal, 24 hours later. The class given is in vivo. As for the experimental part: Acute hepatotoxicity assays were performed in Swiss mice. Animals received a single administration of either vehicle, or 100 mg/kg of teriflunomide or a compound of the present invention (compounds from the list indicated previously) by intraperitoneal route. Twenty-four hours later, animals were sacrificed and the levels of liver markers AST (aspartate aminotransferase), ALT (alanine aminotransferase) and BIL (total bilirubin) in plasma were determined.

Data set [3] has as its system rat adjuvant-induced arthritis model (AIA). The data set is described as follows: Efficacy assay in rat adjuvant-induced arthritis model (AIA), curative protocol. It counts as in vivo, Wistar rats. The following applies: arthritic rats, oral once a day for 10 days, compound 20 10 mg/Kg/day, MTX 0.05 mg/Kg/day, AUC days 10-21 versus vehicle, mean and SEM. How it is done: The effect of DHODH inhibitor compounds were tested in combination with methotrexate (0.05 mg/Kg/day) in the rat adjuvant-induced arthritis model (AIA) in animals with established disease (curative protocol). Briefly, Complete Freund Adjuvant (CFA) was injected into the left hind footpad of Wistar rats, and 10 days later the swelling of the two rear paws was measured with a plethysnnometer. […] Compounds were administered orally once a day for 10 days and paw volumes were determined every two days up to day 21.
The percentage of inhibition for every group was calculated versus values from vehicle-treated rats. The table below depicts the mean and SEM of one experiment using 6 animals per group.

The structures appear in SMILES notation. “Also recorded” adds a separate entry of the source.

human DHODH, sequence (Q02127 whole entry): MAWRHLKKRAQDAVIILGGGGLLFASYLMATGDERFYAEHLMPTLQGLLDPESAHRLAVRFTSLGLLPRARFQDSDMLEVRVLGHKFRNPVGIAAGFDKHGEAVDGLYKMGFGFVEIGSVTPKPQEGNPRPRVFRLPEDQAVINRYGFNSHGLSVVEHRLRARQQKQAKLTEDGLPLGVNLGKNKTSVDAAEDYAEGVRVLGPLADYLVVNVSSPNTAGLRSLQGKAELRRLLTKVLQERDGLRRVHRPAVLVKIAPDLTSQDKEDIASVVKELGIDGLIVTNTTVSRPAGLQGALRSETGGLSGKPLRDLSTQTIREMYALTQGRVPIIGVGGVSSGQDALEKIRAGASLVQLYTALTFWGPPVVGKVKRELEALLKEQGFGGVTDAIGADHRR

Regarding `Cc1ccc(Nc2cnc(-c3ccccc3Cl)c(C)c2)c(C(=O)O)c1` [Compound 71, 2-(6-(2-Chlorophenyl)-5-methylpyridin-3-ylamino)-5-methylbenzoic acid], in data set [1], the IC50 is 14 nM. In data set [2], the ALT plasma level amounted to 72 IU/I, the AST plasma level came to 95 IU/I and the “BIL (total bilirubin) plasma level” value was determined as 0.05 mg/dL.

Turning to `O=C(O)c1cc(C2CC2)ccc1Nc1cnc(-c2c(F)cccc2F)nc1` [Compound 20, 5-cyclopropyl-2-(2-(2,6-difluorophenyl)pyrimidin-5-ylamino)benzoic acid], the concentration for half-maximal inhibition (IC50) in data set [1] is 14 nM. Further, in data set [2], the ALT plasma level stood at 45 IU/I, the AST plasma level is 98 IU/I and the “BIL (total bilirubin) plasma level” value stood at 0.07 mg/dL. Moreover, the “% inhibition of the inflammation (AUC) Right paw” value in data set [3] turned out to be 32 ± 8%.

As for `Cc1ccc(Nc2ccc(-c3c(F)cccc3F)nc2)c(C(=O)O)c1` [Compound 119, 2-(6-(2,6-Difluorophenyl)pyridin-3-ylamino)-5-methylbenzoic acid], the IC50 in data set [1] was found to be 19 nM. In data set [2], the ALT plasma level came out at 69 IU/I, the AST plasma level came to 96 IU/I and the “BIL (total bilirubin) plasma level” value came to 0.08 mg/dL.

As to `O=C(O)c1cc(C2CC2)ccc1Nc1cnc(-c2ccccc2F)nc1` [Compound 127, 5-Cyclopropyl-2-(2-(2-fluorophenyl)pyrimidin-5-ylamino)benzoic acid], the IC50 in data set [1] was found to be 10 nM. Besides, in data set [2], the ALT plasma level was 56 IU/I, the AST plasma level is given as 72 IU/I and the “BIL (total bilirubin) plasma level” value came out at 0.07 mg/dL.

As for `Cc1ccc(Nc2cnc(-c3ccccc3F)c(C)c2)c(C(=O)O)c1` [Compound 97, 2-(6-(2-Fluorophenyl)-5-methylpyridin-3-ylamino)-5-methylbenzoic acid], in data set [1], the IC50 stood at 5 nM. Besides, in data set [2], the ALT plasma level came out at 55 IU/I, the AST plasma level is listed as 92 IU/I and the “BIL (total bilirubin) plasma level” value was found to be 0.11 mg/dL.

For `C/C(O)=C(\C#N)C(=O)Nc1ccc(C(F)(F)F)cc1` [Teriflunomide, reference compound], in data set [2], the ALT plasma level is on record as 440 IU/I, the AST plasma level is given as 655 IU/I and the “BIL (total bilirubin) plasma level” value stood at 0.46 mg/dL. Besides, in data set [2] (mice, intraperitoneal route, 100 mg/kg), the “change in plasma liver markers (AST, ALT, BIL) compared to vehicle-treated mice, in words” value was “dramatic increase; also recorded: drastic increase”.

For the compound `Cc1ccc(Nc2cnc(-c3ccccc3)c(C)c2)c(C(=O)O)c1` [Compound 60, 5-Methyl-2-(5-methyl-6-phenylpyridin-3-ylamino)benzoic acid], the IC50 in data set [1] came to 53 nM. For the same compound, in data set [2], the ALT plasma level came to 70 IU/I, the AST plasma level came out at 131 IU/I and the “BIL (total bilirubin) plasma level” value amounted to 0.09 mg/dL.

As to `Cc1ccc(Nc2ccc(-c3ccccc3Cl)nc2)c(C(=O)O)c1` [Compound 85, 2-(6-(2-Chlorophenyl)pyridin-3-ylamino)-5-methylbenzoic acid], in data set [1], the IC50 amounted to 32 nM. Also, in data set [2], the ALT plasma level is 43 IU/I, the AST plasma level is 83 IU/I and the “BIL (total bilirubin) plasma level” value turned out to be 0.13 mg/dL.

In the case of `Cc1ccc(Nc2cnc(-c3ccccc3)c(F)c2)c(C(=O)O)c1` [Compound 8, 2-(5-Fluoro-6-phenylpyridin-3-ylamino)-5-methylbenzoic acid], the IC50 in data set [1] is 18 nM.

Consider `Cc1ccc(Nc2cnc(N3CCCCC3)c(C)c2)c(C(=O)O)c1` [Compound 30, 5-Methyl-2-(5-methyl-6-(piperidin-1-yl)pyridin-3-ylamino)benzoic acid], for which, in data set [1], the IC50 amounted to 41 nM.

As for `CCOc1cccc(-c2ncc(Nc3ccc(C)cc3C(=O)O)cc2C)c1` [Compound 42, 2-(6-(3-Ethoxyphenyl)-5-methylpyridin-3-ylamino)-5-methylbenzoic acid], the IC50 in data set [1] is 30 nM.

Turning to `CN(Cc1cnc2nc(N)nc(N)c2n1)c1ccc(C(=O)N[C@@H](CCC(=O)O)C(=O)O)cc1` [MTX, Methotrexate], in data set [3], the “% inhibition of the inflammation (AUC) Right paw” value is 33 ± 9%.

`Cc1ccc(Nc2cnc(-c3cccc(C(=O)NC4CC4)c3)c(C)c2)c(C(=O)O)c1` [Compound 126, 2-(6-(3-(Cyclopropylcarbamoyl)phenyl)-5-methylpyridin-3-ylamino)-5-methylbenzoic acid]: in data set [1], the IC50 amounted to 12 nM.

Regarding `Cc1ccc(Nc2cnc(N3CCCCCC3)c(C)c2)c(C(=O)O)c1` [Compound 31, 2-(6-(Azepan-1-yl)-5-methylpyridin-3-ylamino)-5-methylbenzoic acid], in data set [1], the IC50 came out at 119 nM.

As for `Cc1ccc(Nc2ccc(-c3ccncc3F)nc2)c(C(=O)O)c1` [Compound 116, 2-(3′-Fluoro-2,4′-bipyridin-5-ylamino)-5-methylbenzoic acid], in data set [1], the IC50 stood at 90 nM.

As to `COc1cccc(-c2ncc(Nc3ccc(C(F)(F)F)cc3C(=O)O)cc2C)c1` [Compound 50, 2-(6-(3-Methoxyphenyl)-5-methylpyridin-3-ylamino)-5-(trifluoromethyl)benzoic acid], the IC50 in data set [1] amounted to 138 nM.

Consider `O=C(O)c1cc(C2CC2)ccc1Nc1cnc(-c2cccc(OC3CC3)c2)nc1` [Compound 22, 2-(2-(3-Cyclopropoxyphenyl)pyrimidin-5-ylamino)-5-cyclopropylbenzoic acid], for which, in data set [1], the IC50 was found to be 114 nM.

On to `COc1ncc(Nc2ccc(C3CC3)cc2C(=O)O)cc1-c1ccccc1` [Compound 7, 5-Cyclopropyl-2-(6-methoxy-5-phenylpyridin-3-ylamino)benzoic acid], for which, in data set [1], the IC50 was found to be 49 nM.

Take `Cc1ccc(Nc2ccc(-c3c(F)ccc(F)c3F)nc2)c(C(=O)O)c1` [Compound 144, 2-(6-(2,3,6-trifluorophenyl)pyridin-3-ylamino)-5-methylbenzoic acid]: the IC50 in data set [1] came out at 77 nM.

As to `COc1cccc(-c2ncc(Nc3ccc(C4CC4)cc3C(=O)O)cc2C(F)(F)F)c1` [Compound 107, 5-Cyclopropyl-2-(6-(3-methoxyphenyl)-5-(trifluoromethyl)pyridin-3-ylamino)benzoic acid], the IC50 in data set [1] stood at 7 nM.

Turning to `COc1ccc(F)c(-c2cc(C)c(Nc3ccc(C)cc3C(=O)O)cn2)c1` [Compound 75, 2-(6-(2-Fluoro-5-methoxyphenyl)-4-methylpyridin-3-ylamino)-5-methylbenzoic acid], in data set [1], the IC50 was 97 nM.

`Cc1ccc(Nc2cnc(-c3ccccc3Cl)nc2)c(C(=O)O)c1` [Compound 123, 2-(2-(2-Chlorophenyl)pyrimidin-5-ylamino)-5-methylbenzoic acid]: the IC50 in data set [1] turned out to be 57 nM. Moreover, in data set [2], the ALT plasma level came to 89 IU/I, the AST plasma level is 113 IU/I and the “BIL (total bilirubin) plasma level” value is 0.06 mg/dL.

With `O=C(O)c1cc(Cl)ccc1Nc1ccc(-c2ccccc2Cl)nc1` [Compound 110, 5-Chloro-2-(6-(2-chlorophenyl)pyridin-3-ylamino)benzoic acid], the 50% inhibitory concentration (IC50) in data set [1] came out at 145 nM.

Regarding `O=C(O)c1cc(C2CC2)ccc1Nc1ccc(-c2ccccc2F)nc1` [Compound 138, 2-(6-(2-fluorophenyl)pyridin-3-ylamino)-5-cyclopropylbenzoic acid], in data set [1], the half-maximal inhibitory concentration (IC50) was 8 nM.

Turning to `O=C(O)c1cc(C2CC2)ccc1Nc1cnc(-c2ccccc2Cl)nc1` [Compound 121, 2-(2-(2-Chlorophenyl)pyrimidin-5-ylamino)-5-cyclopropylbenzoic acid], the concentration for half-maximal inhibition (IC50) in data set [1] is 3 nM. Further, in data set [2], the ALT plasma level is 75 IU/I, the AST plasma level turned out to be 105 IU/I and the “BIL (total bilirubin) plasma level” value is 0.05 mg/dL.

As to `Cc1ccc(Nc2cnc(-c3cccc(C(=O)N(C)C)c3)c(C)c2)c(C(=O)O)c1` [Compound 79, 2-(6-(3-(Dimethylcarbamoyl)phenyl)-5-methylpyridin-3-ylamino)-5-methylbenzoic acid], the IC50 in data set [1] came to 33 nM.

Turning to `Cc1ccc(Nc2cnc(-c3cccc(C(=O)N4CCCC4)c3)c(C)c2)c(C(=O)O)c1` [Compound 125, 5-Methyl-2-(5-methyl-6-(3-(pyrrolidine-1-carbonyl)phenyl)pyridin-3-ylamino)benzoic acid], the half-inhibitory concentration (IC50) in data set [1] was 9 nM.

The IC50 is the concentration at which inhibition is half-maximal.
